≈ marks a conversion by molar mass, not a printed value.
Columns and labels:
[1] = tested on: A. baumannii strain 5075 (AB5075); assay: Broth microdilution MIC determination of compound alone; assay type: cell-based; details: Acinetobacter baumannii; compound alone; AB5075; read-out: MIC
How it was run: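 MIC by twofold serial dilution in cation-adjusted Mueller-Hinton broth, inoculum 5×10^5 CFU/mL from 6 h day cultures, top concentration 200 μM (64 μg/mL). Incubated stationary at 37° C. for 16 hours; MIC taken as lowest concentration with no visible growth.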

[2] = tested on: A. baumannii mutant AB1310; assay: MIC against Tn-seq transposon mutant AB1310; assay type: cell-based; details: Acinetobacter baumannii
Protocol: (§1) During individual MIC screening, two mutants, AB522 and AB1310, were identified due to their increased sensitivity to the three macrolide antibiotics and vancomycin when compared to AB 5075 (Table 17).
(§2) Day Cultures (6 h) were subcultured to 5×10^5 CFU/mL in cation adjusted Mueller-Hinton broth (CAMHB). Aliquots (1 mL) were placed in culture tubes, and compound was added from 100 mM stock solutions, such that the compound concentration equaled the highest concentration tested (200 μM or 64 μg/mL). Samples were then aliquoted (200 μL) into the first row of wells of a 96-well plate, with all remaining wells being filled with 100 μL of initial bacterial subculture. The wells in row one were mixed five times before 100 μL was transferred to the following row (row two). Row two was then mixed five times, and 100 μL was transferred to row three. This processed was repeated until the final row had been mixed. This process provided a serial dilution of the compound. Plates were covered with Glad Press n'Seal and were incubated under stationary conditions at 37° C. for 16 hours. MIC values were recorded as the lowest concentration at which no bacterial growth was observed.

[3] = tested on: A. baumannii mutant AB522; assay: MIC against Tn-seq transposon mutant AB522; assay type: cell-based; details: Acinetobacter baumannii
Protocol: as §1, §2

[4] = tested on: A. baumannii mutant AB1310; assay: Dose dependent resistance suppression (antibiotic MIC with compound) in AB1310; assay type: cell-based, Acinetobacter baumannii
Protocol: There was no notable reduction in antibiotic MIC observed with either compound and both strains 522 and 1310. […] Even at the highest concentration, no potentiation was observed.
Day Cultures (6 h) were subcultured to 5×10^5 CFU/mL in cation adjusted Mueller-Hinton broth (CAMHB). […] One milliliter of the resulting solution was aliquoted into a separate culture tube and was dosed with antibiotic so that the resulting concentration was the highest desirable concentration to be tested. Bacteria treated with antibiotic alone were used as a control. Row one of a 96-well plate was filled with 200 μL of the antibiotic/compound solution, and the remaining rows were filled with 100 μL of the remaining 4 mL bacterial subculture. The wells in row one were mixed five times before 100 μL was transferred to the following row (row two). Row two was then mixed five times, and 100 μL was transferred to row three. This process was repeated until the second to last row had been reached. The last row is left unexposed to antibiotic in order to serve as a negative control. The antibiotic only treated bacteria was plated by aliquoting 200 μL of the treated bacteria into row one and filling the remaining rows with untreated bacteria from the original bacteria subculture. The rows were mixed in the same way as described above. Plates were covered with Glad Press n'Seal and were incubated under stationary conditions at 37° C. for 16 hours. MIC values were recorded as the lowest concentration at which no bacterial growth was observed. Fold reductions were determined by comparison of the compound treated wells with the antibiotic only treated control wells.

[5] = tested on: A. baumannii strain 5075 (AB5075); assay: Macrolide sensitization / antibiotic resensitization: antibiotic MIC in presence of compound (broth microdilution); assay type: cell-based, Acinetobacter baumannii; details: AB5075
How it was run: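 A. baumannii AB5075 at 5×10^5 CFU/mL in CAMHB held a fixed compound level while antibiotic was serially diluted. After 16-18 h static at 37° C, MIC was the lowest antibiotic concentration without visible growth. Fold-reduction is relative to antibiotic alone, from duplicates repeated at least twice.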

[6] = compound at 30 μM vs antibiotic alone
[7] = in presence of compound (concentration not given in Table 7)
[8] = in presence of compound (concentration not given in Table 12)
[9] = in presence of compound at 4 μM
[10] = in presence of compound at 5 μM
[11] = in presence of compound at 10 μM
[12] = in presence of compound at 15 μM
[13] = in presence of compound at 20 μM
[14] = in presence of compound at 30 μM

## Nc1nc(-c2ccc(NC(=O)c3cc(Br)cc(Br)c3)cc2)c[nH]1 [Compound 4]
[1]
  MIC: 100 µM (≈ 43.6 µg/mL)
[2]
  MIC: 12.5 µM (≈ 5.45 µg/mL)
[3]
  MIC: 12.5 µM (≈ 5.45 µg/mL)
[4]; compound Conc. Tested 2 (μM)
  Azithromycin MIC: 4 µg/mL
  Clarithromycin MIC: 2 µg/mL
  Erythromycin MIC: 4 µg/mL
  Vancomycin MIC: 64 µg/mL
[4]; compound Conc. Tested 3 (μM)
  Azithromycin MIC: 4 µg/mL
  Clarithromycin MIC: 1 µg/mL
  Erythromycin MIC: 2 µg/mL
  Vancomycin MIC: 32 µg/mL
[4]; compound Conc. Tested 4 (μM)
  Azithromycin MIC: 4 µg/mL
  Clarithromycin MIC: 1 µg/mL
  Erythromycin MIC: 2 µg/mL
  Vancomycin MIC: 32 µg/mL
[4]; compound Conc. Tested 5 (μM)
  Azithromycin MIC: 4 µg/mL
  Clarithromycin MIC: 0.5 µg/mL
  Erythromycin MIC: 2 µg/mL
  Vancomycin MIC: 32 µg/mL
[5]; Acinetobacter baumannii, in presence of compound at 30 μM, read-out: Daptomycm MIC
  MIC: 64 µg/mL
[5]; compound at 10 μM vs colistin alone
  Fold Increase (colistin MIC): 0 fold
[5]; compound at 10 μM
  potentiation of vancomycin: no potentiation activity observed
[5]; compound at 20 μM
  reduction in vancomycin MIC (fold): 64 fold
[5]; [6]
  Fold Reduction (daptomycin MIC): 32 fold
  Fold Reduction (vancomycin MIC): 256 fold
  Fold reduction (clarithromycin MIC): 128 fold
[5]; [7]
  Josamycin MIC: 4 µg/mL
  Oleandomycin MIC: 128 µg/mL
  Spiramycin MIC: 64 µg/mL
  Troleandomycin MIC: 16 µg/mL
[5]; [8]
  Amikacin MIC: 128 µg/mL
  Gentamicin MIC: >512 µg/mL
  Kanamycin MIC: >512 µg/mL
  Neomycin MIC: 64 µg/mL
  Streptomycin MIC: 512 µg/mL
  Tobramycin MIC: 64 µg/mL
[5]; [9]
  Azithromycin MIC: 64 µg/mL
  Vancomycin MIC: 128 µg/mL
[5]; [10]
  Azithromycin MIC: 64 µg/mL
  Vancomycin MIC: 256 µg/mL
[5]; [11]
  Azithromycin MIC: 32 µg/mL
  Colistin MIC: 0.5 µg/mL
  Vancomycin MIC: 128 µg/mL
[5]; [12]
  Azithromycin MIC: 8 µg/mL
  Vancomycin MIC: 32 µg/mL
[5]; [13]
  Azithromycin MIC: 16 µg/mL
  Vancomycin MIC: 4 µg/mL
[5]; [14]
  Azithromycin MIC: 8 µg/mL
  Colistin MIC: 4 µg/mL
  Linezolid MIC: 256 µg/mL
  Vancomycin MIC: 1 µg/mL
[5]; in the presence of compound (concentration not given)
  Fold reduction of josamycin MIC: 32 fold
